These results are taken from patent publication US6225478A, “Iridoid derivatives and neovascularization inhibitors containing the same as active ingredient” (Tsumura & Co., priority 1999, dated 2001).

For experiment [1], the system named is human umbilical-vein endothelial cells (HUVEC). Kind of experiment: Cell Migration Assay (CMA) Test, HUVEC (% relative to control). It counts as cell-based. The note with it: Homo sapiens, HUVEC. How it is done:
Furthermore, the sample liquids of compounds used in the CPA and CMA tests were prepared in the manner described below. Firstly, after weighing out each compound, a calculated amount of DMSO was added. After dissolving the compound in the DMSO, phosphate buffered physiological saline (PBS (-)) was added to bring the sample concentration to 1 mg/ml in PBS (-). The amount of DMSO used to dissolve the compounds was adjusted in advance to that the concentration of DMSO at that time was 5%. The resulting liquids were diluted 10-fold with 5% DMSO-PBS (-) solution to prepare sample solutions having a concentration of 0.1 mg/ml. In the TFA test, 320 μl of the prepared 1 mg/ml sample solutions were removed followed by addition of 680 μl of PBS (-) to prepare samples having a concentration of […]. Moreover, 100 μl of this solution was removed followed by addition of 900 μl of PBS (-) to dilute 10-fold and prepare samples having a concentration of 1 μg/ml. P [Cell Proliferation Assay (CPA) Test]
After disseminating the 7th subculture of HUVEC obtained from the first generation in the same manner as above at 4 ml/well (3.0×10^5 cells/well) in a collagen-coated 6-well plate (NUNC), the cells were cultured for 48 hours at 37° C. in the presence of 5% CO2. The cells reached nearly a completely confluent state as a result of this culturing.
A double-edged, disposable razor blade was divided into four sections, of which one of those sections was pinched between a pair of forceps. Using this piece of razor blade, the cell surface in the above confluent state was scraped off. Two areas of the cell surface were scraped off in each well.
After washing the surface of the wells from which the cells had been scraped off with medium, 4.0 ml of fresh M199 (2+) medium were added followed by addition of 40 μl or 4 μl of sample solution (1 mg/ml). The cells were cultured for 24 hours at 37° C. in the presence of 5% CO2. After discarding the culture liquid, the cells were fixed for 30 minutes with methanol. Next, after staining the cells for 4 hours with Giemsa stain, the plates were washed with tap water and air dried.
Measurement of cell migration was performed by microscopically counting the number of cells that had newly migrated within the range of a 1 mm×1 mm block. […] The total number of cells counted in blocks 1 through 5 were then totaled to determine the overall total number of cells. Four fields were counted for each well.
Evaluation was performed determining the cell migration (%) according to the following formula.
Cell migration rate=number of migrating cells to which sample was added×100/number of migrating of control (+)
Control (+) indicates the number of migrating cells in the control well containing M199 (2+).

Experiment [2] has the same test system. Kind of experiment: Tube Formation Assay (TFA) Test, HUVEC in collagen gel. It counts as cell-based. The note with it: for inhibition at 1 µg/mL / inhibition at 10 µg/mL / inhibition at 320 µM (stock): Homo sapiens, HUVEC; for inhibition at 1 µg/mL / inhibition at 10 µg/mL: 20 h, read-out: TFA (inhibition rate, %); for inhibition at 320 µM (stock): read-out: TFA Inhibition rate (%). In a few lines:
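Inhibition rate (%) of tube formation is computed from tube lengths against control (+) and control (-), measured after 20 h at 37 °C in M-199 with 20% FCS, 30 ng/ml b-FGF and 0.1 μM PMA. Samples were applied to HUVEC on collagen and covered by a second collagen layer (double-layer gel).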

For experiment [3], the system named is HUFEC. As to the kind of experiment: Cell Migration Assay (CMA) Test, inhibitory rate with control (-) correction. It counts as cell-based, human. The note with it: Homo sapiens, 24 h, 125 μl of 0.32 mM sample solution in 4.0 ml medium, 80% or more = remarkable. In a few lines:
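Confluent HUFEC monolayers were scratch-wounded, then cultured 24 h at 37 °C, 5% CO2 in M199 (2+) medium with compound added as 125 μl of a 0.32 mM solution (3.2% DMSO) per 4 ml. Giemsa-stained cells migrating into 1 mm×1 mm blocks counted; inhibition % calculated relative to control (+) and control (−) wells.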

[4] abbreviates: Tables 75-83, 0.32 mM sample solution, method as for Compounds 1 through 60.

For orientation: inhibition means the relative decrease from the control value, in per cent.

Where two headings read alike, the source gives them in different places.

In the case of `CN(C)c1ccc(O)c2c1C[C@H]1C[C@H]3[C@H](N(C)C)C(O)=C(C(N)=O)C(=O)[C@@]3(O)C(O)=C1C2=O` [Minocycline, reference compound], the activity at 1 µg/mL in experiment [1] (1 μg/ml, 24 hours, 60% or less = remarkable inhibition, read-out: CMA (% relative to control)) stood at 67.3%. In addition, the activity at 10 µg/mL in experiment [1] (10 μg/ml, 24 hours, 60% or less = remarkable inhibition, read-out: CMA (% relative to control)) was 51.6%. For the same compound, the inhibition at 1 µg/mL in experiment [2] (1 μg/ml, 20 hours, 40% or less judged remarkable) stood at 42.1%. The inhibition at 10 µg/mL in experiment [2] (10 μg/ml, 20 hours, 40% or less judged remarkable) was determined as 56.7%.
As for `CNC(=O)O[C@@H]1OC=C(C(=O)O)[C@H]2C[C@@H]3O[C@]3(C)[C@H]12` [compound 2, sodium (1S,4aS,6S,7R,7aR)-6,7-epoxy-1,4a,5,6,7,7a-hexahydro-7-methyl-1-(methylcarbamoyloxy) cyclopenta [c]-pyrane-4-carboxylic acid], in experiment [1] (24 h, read-out: CMA (% relative to control), 1 μg/ml, 60% or less = remarkable inhibition), the activity at 1 µg/mL was 88.4%. Further, the activity at 10 µg/mL in experiment [1] (24 h, read-out: CMA (% relative to control), 10 μg/ml, 60% or less = remarkable inhibition) came out at 95.8%. For the same compound, in experiment [2], the inhibition at 1 µg/mL was found to be 69.1% and the inhibition at 10 µg/mL turned out to be 56.9%.
Consider `CNC(=O)O[C@@H]1OC=C(C)[C@H]2CC[C@H](C)[C@@H]12` [I-278], for which the figures for the inhibition at 320 µM (stock) in experiment [2] (setting [4]) and in experiment [3] were 20.2% and 125%, respectively.
For the compound `COC(=O)C1=CO[C@@H](OC(=O)NCC2CCCO2)[C@H]2[C@@H]1CC[C@@H]2C` (some centres unmarked) [I-181], the inhibition at 320 µM (stock) in experiment [2] (setting [4]) was 3.2%; in experiment [3], 2.3%.
On to `C[C@]12O[C@H]1C[C@@H]1C(C(=O)O)=CO[C@@H](OC(=O)NCCCl)[C@@H]12` [I-66], for which the inhibition at 320 µM (stock) was 19.7% in experiment [2] (setting [4]) and 30.5% in experiment [3].
As for `COC(=O)C1=CO[C@@H](OC(=O)Nc2ccc(F)cc2)[C@@H]2C(C)=CC[C@H]12` [I-156], the values for the inhibition at 320 µM (stock) in experiment [2] (setting [4]) and in experiment [3] were 10.9% and 5.8%, respectively.
`COC(=O)C1=CO[C@@H](OC(=O)N(C)C)[C@H]2[C@@H]1CC[C@@H]2C` [I-239]: the inhibition at 320 µM (stock) in experiment [2] (setting [4]) stood at 5.7%; in experiment [3], 7.8%.
In the case of `C=CCNC(=O)O[C@@H]1OC=C(C(=O)OC)[C@H]2CC=C(C)[C@@H]12` [I-123], the inhibition at 320 µM (stock) in experiment [2] (setting [4]) came to 14.1%; in experiment [3], 8%.
On the same counts, the results for `COC(=O)C1=CO[C@@H](OC(=O)Nc2c(F)cccc2F)[C@@H]2C(C)=CC[C@H]12` [I-157] are 12.9% and 7.7%.
`COC(=O)C1=CO[C@@H](OC(=O)Nc2ccccc2)[C@H]2[C@@H]1CC[C@@H]2C` [I-271]: the values for the inhibition at 320 µM (stock) in experiment [2] (setting [4]) and in experiment [3] were 35.1% and 21.6%, respectively.
Consider `CCC(CC)NC(=O)O[C@@H]1OC=C(C(=O)OC)[C@H]2CC[C@H](C)[C@@H]12` [I-207], for which the inhibition at 320 µM (stock) in experiment [2] (setting [4]) stood at 4.4%; in experiment [3], 5.5%.
In the case of `COC(=O)C1=CO[C@@H](OC(=O)Nc2ccc(OC)cc2)[C@@H]2C(C)=CC[C@H]12` [I-161], the inhibition at 320 µM (stock) in experiment [2] (setting [4]) is 8.2%; in experiment [3], 14.4%.
`COC(=O)C1=CO[C@@H](OC(=O)NC2CCCCCC2)[C@@H]2C(C)=CC[C@H]12` [I-103]: the inhibition at 320 µM (stock) in experiment [2] (setting [4]) worked out at 8.3%; in experiment [3], 5.1%.
`CCOc1ccccc1N1CCN(C(=O)O[C@@H]2OC=C(C(=O)OC)[C@H]3CC[C@H](C)[C@@H]23)CC1` [I-243]: the values for the inhibition at 320 µM (stock) in experiment [2] (setting [4]) and in experiment [3] were 8.1% and 6.7%, respectively.
For the compound `COC(=O)C1=CO[C@@H](OC(=O)NCc2ccccn2)[C@H]2[C@@H]1CC[C@@H]2C` [I-177], the inhibition at 320 µM (stock) in experiment [2] (setting [4]) turned out to be 15%; in experiment [3] it was 5%.
Take `COC(=O)C1=CO[C@@H](OC(=O)NCCCN(C)C)[C@@H]2C(C)=CC[C@H]12` [I-105]: the inhibition at 320 µM (stock) was 5.6% in experiment [2] (setting [4]) and 14.9% in experiment [3].
`COC(=O)C1=CO[C@@H](OC(=O)NCc2nc3ccccc3[nH]2)[C@H]2[C@@H]1CC[C@@H]2C` [I-252]: the inhibition at 320 µM (stock) in experiment [2] (setting [4]) came to 5.4%; in experiment [3] it was 8.2%.
The like results for `COC(=O)C1=CO[C@@H](OC(=O)N2CCN(c3cccc(C(F)(F)F)c3)CC2)[C@H]2[C@@H]1CC[C@@H]2C` [I-235] were, in that order, 9.3% and 6.5%.
As for `COC(=O)C1=CO[C@@H](OC(=O)NCCc2c[nH]c3ccccc23)[C@H]2[C@@H]1CC[C@@H]2C` [I-220], the inhibition at 320 µM (stock) in experiment [2] (setting [4]) came out at 7.4%; in experiment [3], 25%.
Regarding `CNC(=O)O[C@@H]1OC=C(C(=O)O)[C@H]2CC=C(C)[C@@H]12` [I-307], the “TFA (inhibition rate, %)” value in experiment [2] (setting [4]) worked out at 50.2%. Moreover, in experiment [3], the inhibition at 320 µM (stock) turned out to be 52.5%.
Take `C[C@@]12O[C@@H]1C[C@@H]1C(C(=O)O)=CO[C@@H](OC(=O)NCCCl)[C@@H]12` [I-69]: the inhibition at 320 µM (stock) in experiment [2] (setting [4]) was 18%; in experiment [3], 18.8%.
Take `COC(=O)C1=CO[C@@H](OC(=O)Nc2ccc(C)cc2)[C@@H]2C(C)=CC[C@H]12` [I-169]: the inhibition at 320 µM (stock) in experiment [2] (setting [4]) came to 13.7%; in experiment [3] it was 12.6%.
On the same counts, the results for `COC(=O)C1=CO[C@@H](OC(=O)NCc2ccc(OC)cc2)[C@@H]2C(C)=CC[C@H]12` [I-83] are 21.4% and 50%.
In the case of `COCCCNC(=O)O[C@@H]1OC=C(C(=O)OC)[C@H]2CC=C(C)[C@@H]12` [I-121], the inhibition at 320 µM (stock) was 9.4% in experiment [2] (setting [4]) and 7.1% in experiment [3].
Take `COC(=O)C1=CO[C@@H](OC(=O)N2CC=C(c3ccccc3)CC2)[C@@H]2C(C)=CC[C@H]12` [I-140]: the inhibition at 320 µM (stock) in experiment [2] (setting [4]) is 5.2%; in experiment [3], 3.3%.
On to `COC(=O)C1=CO[C@@H](OC(=O)NCCc2ccccc2F)[C@H]2[C@@H]1CC[C@@H]2C` [I-185], for which the inhibition at 320 µM (stock) in experiment [2] (setting [4]) amounted to 4.9%; in experiment [3], 15.6%.
Take `COC(=O)C1=CO[C@@H](OC(=O)N2CCCCC2)[C@H]2[C@@H]1CC[C@@H]2C` [I-216]: the inhibition at 320 µM (stock) came out at 3.7% in experiment [2] (setting [4]) and 9.4% in experiment [3].
Take `COC(=O)C1=CO[C@@H](OC(=O)NCCCN2CCOCC2)[C@H]2[C@@H]1CC[C@@H]2C` [I-229]: the inhibition at 320 µM (stock) in experiment [2] (setting [4]) is 3%; in experiment [3], 19.5%.
Take `COC(=O)C1=CO[C@@H](OC(=O)NCC2CCCO2)[C@@H]2C(C)=CC[C@H]12` (some centres unmarked) [I-78]: the inhibition at 320 µM (stock) was 5.1% in experiment [2] (setting [4]) and 23.4% in experiment [3].
Turning to `COC(=O)C1=CO[C@@H](OC(=O)Nc2ccc(Cl)cc2C(F)(F)F)[C@H]2[C@@H]1CC[C@@H]2C` [I-265], the inhibition at 320 µM (stock) in experiment [2] (setting [4]) was 3.3%; in experiment [3], 6.3%.
In the case of `CNC(=O)O[C@@H]1OC=C(C(=O)NC)[C@H]2CC=C(C)[C@@H]12` [I-310], the inhibition at 320 µM (stock) in experiment [2] (setting [4]) worked out at 20.1%; in experiment [3], 20.7%.
Take `CCCCCCNC(=O)O[C@@H]1OC=C(C(=O)OC)[C@H]2CC=C(C)[C@@H]12` [I-72]: the inhibition at 320 µM (stock) in experiment [2] (setting [4]) is 5.9%; in experiment [3], 42.9%.
